What was measured:
[1] = target: T1, IDE, substrate glucagon (Homo sapiens, UniProt P14735); test: MALDI analysis of glucagon cleavage products (FIGS. 27-32); format: biochemical; conditions: FIG. 27A
T1 sequence (P14735 1-1019): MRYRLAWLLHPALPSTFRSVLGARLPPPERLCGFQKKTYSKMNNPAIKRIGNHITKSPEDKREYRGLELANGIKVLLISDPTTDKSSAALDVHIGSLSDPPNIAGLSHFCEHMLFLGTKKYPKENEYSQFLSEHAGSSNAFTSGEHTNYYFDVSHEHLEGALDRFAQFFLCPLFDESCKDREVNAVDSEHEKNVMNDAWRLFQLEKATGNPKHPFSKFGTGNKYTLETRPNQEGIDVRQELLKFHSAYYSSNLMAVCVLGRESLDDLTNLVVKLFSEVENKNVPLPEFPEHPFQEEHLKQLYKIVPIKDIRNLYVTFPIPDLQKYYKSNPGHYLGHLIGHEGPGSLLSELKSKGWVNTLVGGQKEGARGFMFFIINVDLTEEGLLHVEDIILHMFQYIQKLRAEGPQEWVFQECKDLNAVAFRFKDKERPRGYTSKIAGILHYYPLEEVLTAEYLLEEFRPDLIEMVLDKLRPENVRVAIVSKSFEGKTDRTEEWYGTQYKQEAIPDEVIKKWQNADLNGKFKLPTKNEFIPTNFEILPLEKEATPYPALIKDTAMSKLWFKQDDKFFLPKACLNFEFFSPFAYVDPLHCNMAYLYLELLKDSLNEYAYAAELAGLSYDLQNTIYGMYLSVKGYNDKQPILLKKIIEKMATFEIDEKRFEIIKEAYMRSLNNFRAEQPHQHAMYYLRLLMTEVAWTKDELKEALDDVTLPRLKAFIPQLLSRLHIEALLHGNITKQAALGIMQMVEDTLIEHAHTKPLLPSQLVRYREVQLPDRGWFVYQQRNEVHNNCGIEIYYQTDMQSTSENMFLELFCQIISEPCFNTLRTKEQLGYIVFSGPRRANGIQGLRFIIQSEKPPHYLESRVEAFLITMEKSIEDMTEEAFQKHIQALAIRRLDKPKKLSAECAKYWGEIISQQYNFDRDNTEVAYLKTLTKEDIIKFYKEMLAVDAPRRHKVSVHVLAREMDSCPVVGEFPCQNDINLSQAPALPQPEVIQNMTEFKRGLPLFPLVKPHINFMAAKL

[2] = target: T2, recombinant human IDE42-1019 (Homo sapiens, UniProt P14735); test: Protease assay with fluorogenic peptide substrate Mca-[…](Dnp)-OH; format: biochemical; conditions: fluorogenic peptide Mca-RPPGFSAFK(Dnp)-OH; for IC50: apparent IC50 for compounds with submaximal inhibition, read-out: IC50 (μM) Proteolysis; for Emax: plateau at high inhibitor concentration, read-out: Imax (%) Proteolysis (inhibition maximum)
T2 construct: recombinant human IDE42-1019 (R&D Systems); purchased R&D Systems
T2 sequence (P14735 42-1019): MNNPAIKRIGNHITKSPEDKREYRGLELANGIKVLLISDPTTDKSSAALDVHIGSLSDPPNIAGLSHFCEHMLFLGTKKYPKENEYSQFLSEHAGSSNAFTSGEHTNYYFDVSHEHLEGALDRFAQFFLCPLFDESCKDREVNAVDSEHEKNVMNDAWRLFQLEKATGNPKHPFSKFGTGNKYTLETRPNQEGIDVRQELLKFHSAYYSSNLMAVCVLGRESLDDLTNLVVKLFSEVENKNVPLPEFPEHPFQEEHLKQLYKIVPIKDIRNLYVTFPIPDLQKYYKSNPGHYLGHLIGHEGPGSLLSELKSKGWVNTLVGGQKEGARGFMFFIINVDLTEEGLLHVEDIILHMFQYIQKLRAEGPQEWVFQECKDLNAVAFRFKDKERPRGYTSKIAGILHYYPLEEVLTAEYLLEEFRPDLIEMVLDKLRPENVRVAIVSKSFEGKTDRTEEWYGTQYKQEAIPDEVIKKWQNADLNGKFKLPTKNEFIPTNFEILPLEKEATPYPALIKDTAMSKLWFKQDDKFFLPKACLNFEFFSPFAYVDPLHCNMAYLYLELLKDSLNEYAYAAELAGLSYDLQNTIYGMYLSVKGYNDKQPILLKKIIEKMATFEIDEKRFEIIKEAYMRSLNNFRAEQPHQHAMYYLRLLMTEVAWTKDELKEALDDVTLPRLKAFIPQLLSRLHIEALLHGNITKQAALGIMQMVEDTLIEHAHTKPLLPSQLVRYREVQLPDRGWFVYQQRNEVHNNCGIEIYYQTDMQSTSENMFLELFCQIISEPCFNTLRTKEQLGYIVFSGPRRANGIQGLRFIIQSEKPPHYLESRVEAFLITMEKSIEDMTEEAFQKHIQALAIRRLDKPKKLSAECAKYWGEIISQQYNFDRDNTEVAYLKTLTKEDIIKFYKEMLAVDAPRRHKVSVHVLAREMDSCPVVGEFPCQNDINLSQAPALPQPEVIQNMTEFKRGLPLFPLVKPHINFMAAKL

[3] = target: T3, Human N-His6-IDE42-1019 (E. coli expressed) (Homo sapiens, UniProt P14735); test: Fluorescence anisotropy high-throughput screening assay (displacement of probe FL-6b); format: binding; conditions: final compound concentration 20 μM (6bK control 1 μM); values without asterisk
T3 construct: Human N-His6-IDE42-1019 (E. coli expressed); made in house; host or cells: E. coli (Rosetta 2 (DE3) pLysS, plasmid pTrcHis-A)
T3 sequence (P14735 42-1019): T2 sequence (P14735 42-1019)
In short: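 Compounds at 20 μM final were added to 0.5 μM enzyme with fluorescein-labelled macrocycle probe ([…]) in 50 mM Tris pH 8.0, 1 M NaCl, 25 °C. Anisotropy (ex 492/em 523 nm) was read after 30 min in duplicate. Z-scores were calculated against plate DMSO controls.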

[4] = target: T4, IDE (R&D), substrate glucagon (Homo sapiens, UniProt P14735); test: HTRF assay for IDE-mediated degradation of glucagon; format: biochemical; conditions: compounds 67 μM, 0° C. for 10 minutes, versus DMSO alone, FIG. 5
T4 construct: recombinant human IDE42-1019 (R&D Systems); purchased R&D
T4 sequence (P14735 42-1019): T2 sequence (P14735 42-1019)
Description: A solution of 0.05 μg/mL IDE (R&D) in “Diluent #5” (CisBio, 24 μL) was transferred to a 200 μL tube strip, and combined with 1 μL of each inhibitor (10 mM in DMSO, or as a 3-fold dilution series). […] This procedure was optimized to result in ˜75% degradation of glucagon. The reaction was terminated by 1 μL of inhibitor Ii1 (5 μM) and chilled on ice. The remaining glucagon was quantified using 10 μL of the quenched enzymatic reaction using the sensitive-range protocol Homogeneous Time-Resolved FRET Glucagon assay (CisBio® 62GLCPEF, see FIG. 3) in 20 μL total volume according to the manufacturer's instructions (384 well-plate Greiner 784904 non-binding). Fluorescence was measured using a Tecan M1000Pro plate reader (excitation=340 nm, emission=665 and 620 nm, lag time=60 μs) according the assay manufacturer's recommendations. Blank wells and glucagon standard curve were included in the assay.
FIG. 4 compares the determined endpoint for insulin degradation with of glucagon degradation for a DMSO control, 6bK at 10 μM, and exemplary compounds of the invention at concentrations of 67 μM.
The HTRF endpoint assay for insulin and glucagon was performed over a range of concentrations for several potential inhibitors and for 6bK.

Row | SMILES | IC50 [2] | Average Z-score (Fluorescence anisotropy) [3] | initial rates of glucagon cleavage [4] | Emax [2] | main glucagon cleavage site [1]
1 | Cc1cccc(-c2ccc([C@H]3C4CN(S(=O)(=O)c5ccccc5C(F)(F)F)CCCCN4[C@@H]3CF)cc2)c1C (some centres unmarked) [JP-18] |  |  |  |  | no change in the main glucagon cleavage site
2 | Cc1ccccc1-c1ccc([C@@H]2[C@@H](CO)N3CCCCN(S(C)(=O)=O)C[C@@H]23)cc1 [compound 591] | 1.5 µM | −17.90 | enhanced | 40% | 
3 | Cc1cccc(-c2ccc([C@@H]3[C@@H](CO)N4CCCCN(S(=O)(=O)c5ccccc5C(F)(F)F)C[C@@H]34)cc2)c1C [JP-17] | 0.001 µM |  |  |  | no change in the main glucagon cleavage site
4 | Cc1ccccc1-c1ccc([C@H]2[C@@H](CO)N3CCCCN(C(=O)NC4CCCC4)C[C@H]23)cc1 [compound 255] |  | −17.33 |  | 50% | 
5 | Cc1ccccc1-c1ccc([C@@H]2[C@H](CO)N3CCCCN(C(=O)NC4CCCC4)C[C@@H]23)cc1 [compound 932] | > 20 µM | −19.01 |  | 90% | 

Now from value to compound, other results behind:

Row | IC50 [2] | Average Z-score (Fluorescence anisotropy) [3] | initial rates of glucagon cleavage [4] | Emax [2] | SMILES | main glucagon cleavage site [1]
6 | 0.8 µM | −20.82 | enhanced |  | Cc1ccccc1-c1ccc([C@H]2[C@H](CO)N3C(=O)CN(C(=O)NC4CCCC4)C[C@@H]23)cc1 [compound 504] | 
7 | 0.8 µM | −22.36 | reduced | 60% | CCCNC(=O)N1CC(=O)N2[C@H](CO)[C@@H](c3ccc(-c4cccc(C)c4)cc3)[C@@H]2C1 [compound 779] | 
8 | > 100 µM | −5.28 |  |  | COC(=O)N1CCCCN2[C@H](CO)[C@@H](c3ccc(-c4cccc(C)c4)cc3)[C@@H]2C1 [compound 559] | 
9 |  | −18.29 |  | 60% | CCS(=O)(=O)N1CCCCN2[C@H](CO)[C@@H](c3ccc(-c4ccccc4C)cc3)[C@@H]2C1 [compound 416] | 
10 | 2.5 µM | −19.85 |  | 50% | Cc1ccccc1-c1ccc([C@@H]2[C@@H](CO)N3C(=O)CN(C(=O)Cc4ccccn4)C[C@@H]23)cc1 [compound 081] | 

Reference: patent US11040976B2, “Substrate selective inhibitors of insulin-degrading enzyme (IDE) and uses thereof” (President and Fellows of Harvard College, priority 2015, dated 2021)
